Measured values published in patent publication US11072616B2, “Cyclic peptides targeting alpha-4-beta-7 integrin” (Zealand Pharma A/S, priority 2015, dated 2021).
Each block holds one compound with its values, some of them ahead of it.

What was measured:
[1] = not given; remark: listed apart in the source
[2] = Plasma protein binding, equilibrium dialysis, rat plasma; settings: for % recovery: rat plasma dialysis; for fraction unbound at 5 h, 1 microM: 50% plasma
[3] = Plasma protein binding, equilibrium dialysis, mouse plasma; settings: for % recovery: mouse plasma dialysis; for fraction unbound at 5 h, 1 microM: 50% plasma
CYP1A2 = target: T1, CYP1A2 (Homo sapiens, UniProt P05177); assay: in vitro; settings: microsomes
T1 sequence (P05177 1-516): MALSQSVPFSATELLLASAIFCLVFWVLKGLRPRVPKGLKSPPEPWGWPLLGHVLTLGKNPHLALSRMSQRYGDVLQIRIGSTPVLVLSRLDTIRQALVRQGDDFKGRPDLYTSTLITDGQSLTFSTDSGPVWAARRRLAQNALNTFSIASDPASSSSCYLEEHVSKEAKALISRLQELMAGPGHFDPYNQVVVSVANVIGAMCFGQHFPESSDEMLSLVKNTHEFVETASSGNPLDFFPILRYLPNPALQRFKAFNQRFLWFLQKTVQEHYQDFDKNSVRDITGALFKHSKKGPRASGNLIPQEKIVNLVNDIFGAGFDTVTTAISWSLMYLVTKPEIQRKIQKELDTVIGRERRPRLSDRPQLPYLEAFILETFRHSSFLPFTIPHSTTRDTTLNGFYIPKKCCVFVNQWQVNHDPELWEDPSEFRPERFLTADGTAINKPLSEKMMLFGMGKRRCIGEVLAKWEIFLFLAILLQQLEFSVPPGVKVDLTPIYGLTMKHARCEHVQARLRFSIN
Procedure: (§1) Cytochrome P450 Inhibition Assay
(§2) Analyses were performed using standard LC/MS/MS protocols.

CYP2C9 = CYP2C9 (Homo sapiens, UniProt P11712); assay: in vitro; settings: microsomes
Sequence of CYP2C9 (P11712 whole entry): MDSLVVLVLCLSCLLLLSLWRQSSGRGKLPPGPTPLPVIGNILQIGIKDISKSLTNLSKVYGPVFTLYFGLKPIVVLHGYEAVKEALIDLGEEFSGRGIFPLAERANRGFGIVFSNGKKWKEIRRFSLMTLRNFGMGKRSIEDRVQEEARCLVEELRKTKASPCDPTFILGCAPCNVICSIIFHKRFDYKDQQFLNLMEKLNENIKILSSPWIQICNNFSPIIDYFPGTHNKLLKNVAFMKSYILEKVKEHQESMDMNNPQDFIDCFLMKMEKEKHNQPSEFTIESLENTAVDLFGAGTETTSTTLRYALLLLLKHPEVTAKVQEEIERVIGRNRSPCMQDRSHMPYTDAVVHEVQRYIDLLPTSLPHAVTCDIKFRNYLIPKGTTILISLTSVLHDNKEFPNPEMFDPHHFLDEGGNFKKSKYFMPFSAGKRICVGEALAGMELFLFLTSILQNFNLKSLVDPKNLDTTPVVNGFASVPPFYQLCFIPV
Procedure: as §1, §2

CYP2D6 = CYP2D6 (Homo sapiens, UniProt P10635); assay: in vitro; settings: microsomes
Sequence of CYP2D6 (P10635 whole entry): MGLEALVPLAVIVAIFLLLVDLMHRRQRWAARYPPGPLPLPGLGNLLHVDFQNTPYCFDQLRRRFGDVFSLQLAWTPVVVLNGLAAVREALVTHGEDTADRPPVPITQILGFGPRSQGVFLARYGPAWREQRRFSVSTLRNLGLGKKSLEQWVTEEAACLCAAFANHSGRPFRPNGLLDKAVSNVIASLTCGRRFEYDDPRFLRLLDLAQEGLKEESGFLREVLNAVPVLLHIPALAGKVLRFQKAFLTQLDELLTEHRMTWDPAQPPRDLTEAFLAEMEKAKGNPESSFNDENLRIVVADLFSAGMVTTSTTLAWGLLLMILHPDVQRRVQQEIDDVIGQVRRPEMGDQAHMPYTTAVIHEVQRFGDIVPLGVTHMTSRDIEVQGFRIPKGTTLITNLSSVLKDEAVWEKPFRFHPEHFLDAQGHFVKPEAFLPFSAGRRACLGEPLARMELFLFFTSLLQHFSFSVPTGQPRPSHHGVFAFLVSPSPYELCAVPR
Procedure: as §1, §2

CYP3A4 = CYP3A4 (Homo sapiens, UniProt P08684); assay: in vitro; settings: microsomes
Sequence of CYP3A4 (P08684 whole entry): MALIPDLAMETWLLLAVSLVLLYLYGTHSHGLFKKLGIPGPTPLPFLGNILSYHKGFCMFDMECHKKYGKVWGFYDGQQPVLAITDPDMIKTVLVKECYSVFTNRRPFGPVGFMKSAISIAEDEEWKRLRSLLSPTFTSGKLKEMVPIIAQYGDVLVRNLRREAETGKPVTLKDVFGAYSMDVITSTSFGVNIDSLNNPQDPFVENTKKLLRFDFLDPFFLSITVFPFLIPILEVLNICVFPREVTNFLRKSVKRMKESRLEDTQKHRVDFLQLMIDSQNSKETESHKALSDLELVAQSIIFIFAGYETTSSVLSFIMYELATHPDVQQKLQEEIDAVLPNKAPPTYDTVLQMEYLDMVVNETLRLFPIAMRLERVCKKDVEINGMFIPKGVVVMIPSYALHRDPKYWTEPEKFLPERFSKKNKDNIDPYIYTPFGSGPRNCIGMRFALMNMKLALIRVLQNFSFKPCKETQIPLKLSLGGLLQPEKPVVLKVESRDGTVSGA
Procedure: as §1, §2

[4] = system: integrin alpha-4-beta-7-expressing T lymphocytes; assay: In vivo T lymphocyte trafficking analyses in DSS-treated mice (single dose); design: species or system C57Bl/6 mice; settings: 5-6 h
Procedure: In Vivo T Lymphocyte Trafficking Analyses
Animals. Female C57131/6 mice (Charles River, St-Constant, Qc), weighting 16-19 g at delivery were used for this study. Following arrival in the animal facility, all animals were subjected to a general health evaluation. An acclimation period of 7-14 days was allowed before the beginning of the study.
Administration of DSS. Dextran sulfate sodium (DSS) was administered to C57Bl/6 mice through addition to their drinking water at 2-3%. Mice accessed the DSS-treated water ad libitum over a 5-day period. Body weight and disease activity index (“DAI”) were measured on Day 5 in order to distribute DSS-treated animals in two uniform groups prior to dosing. Specific symptoms associated with colitis were scored based on the severity of each particular symptoms: 1—blood in stool (negative hemoccult, positive hemoccult, blood traces in stool visible, rectal bleeding); 2—stool consistency (normal, soft but still formed, very soft, diarrhea); 3—posture and fur (normal; ruffled fur; ruffled fur combined to slight hunched posture and slight dehydration; ruffled fur combined to hunched posture, dehydration and altered walking; moribund (euthanasia is mandatory before the animal reach this point). The overall DAI score was the sum of the three parameters (maximum score of 9). DAI assessment was performed on Day 5 only (prior to dosing). […]

[5] = in vivo
[6] = Sprague-Dawley, rat, % unbound (Cbuffer/Cplasma) Rat plasma 1, replicate 1, 1 microM, 5 h
[7] = Sprague-Dawley, rat, % unbound (Cbuffer/Cplasma) Rat plasma 2, replicate 2, 1 microM, 5 h
[8] = Sprague-Dawley, rat, % unbound (Cbuffer/Cplasma) Rat plasma 3, replicate 3, 1 microM, 5 h
[9] = Sprague-Dawley, rat, % unbound (Cbuffer/Cplasma) Rat plasma Average, average of 3 replicates
[10] = CD-1, mouse, % unbound (Cbuffer/Cplasma) Mouse plasma 1, replicate 1, 1 microM, 5 h
[11] = CD-1, mouse, % unbound (Cbuffer/Cplasma) Mouse plasma 2, replicate 2, 1 microM, 5 h
[12] = CD-1, mouse, % unbound (Cbuffer/Cplasma) Mouse plasma 3, replicate 3, 1 microM, 5 h
[13] = CD-1, mouse, % unbound (Cbuffer/Cplasma) Mouse plasma Average, average of 3 replicates

Structure (SMILES): CC(C)C[C@@H]1NC(=O)[C@H](Cc2ccccc2)NC(=O)[C@@H]2CCCN2[C@H](C(=O)NC(C)(C)C)[C@H](C)NC(=O)[C@H]([C@@H](C)O)NC(=O)[C@H](CC(=O)O)NC1=O [ET01792]
IC50 (CYP1A2): > 15 µM
IC50 (CYP2C9): > 15 µM
IC50 (CYP2D6): > 15 µM
IC50 (CYP3A4): > 15 µM
homing of T lymphocytes to the MLN ([4]; 100 mg/kg single oral dose): significant reduction of homing to the MLN
% unbound (Cbuffer/Cplasma) Mouse plasma 1: 64.8%
% unbound (Cbuffer/Cplasma) Mouse plasma 2: 52.9%
% unbound (Cbuffer/Cplasma) Mouse plasma 3: 67.9%
% unbound (Cbuffer/Cplasma) Mouse plasma Average: 61.9%
% unbound (Cbuffer/Cplasma) Rat plasma 1 [1]: 82.9%
% unbound (Cbuffer/Cplasma) Rat plasma 2 [1]: 77.3%
% unbound (Cbuffer/Cplasma) Rat plasma 3 [1]: 79.5%
% unbound (Cbuffer/Cplasma) Rat plasma Average [1]: 79.9%
oral bioavailability / absorption (in words) ([5]; mouse, po): high oral bioavailability
exposure (AUC0-tlast) ([5]; mouse, po, 40 mg/kg): 589 ng·h/mL
maximum plasma concentration after the first dose ([5]; mouse, po, 48 mg/kg): ~1,600 ng/ml
% recovery [2]: 97%
Control buffer/Buffer at 0.1 uM Cdonor/Creceiver [3]: 80%
% recovery [3]: 130%

Structure (SMILES): CC[C@H](C)[C@@H]1NC(=O)[C@H](CCO)NC(=O)[C@H](CC(C)C)NC(=O)[C@H](Cc2ccc3ccccc3c2)NC(=O)[C@@H]2CCCN2[C@H](C(=O)NC(C)(C)C)[C@H](C)NC1=O [ET01842-01]
IC50 (CYP1A2; human): > 15 µM
IC50 (CYP2C9; human): > 15 µM
IC50 (CYP2D6; human): > 15 µM
IC50 (CYP3A4; human): 0.89 µM

Structure (SMILES): CC(C)C[C@H]1C(=O)N[C@@H](C(C)C)C(=O)N[C@@H](Cc2ccccc2)C(=O)N[C@@H](C)[C@@H](C(=O)NC(C)(C)C)N2CCC[C@H]2C(=O)N[C@@H]([C@@H](C)O)C(=O)N1C [ET00328-01]
IC50 (CYP1A2; human): > 15 µM
IC50 (CYP2C9; human): > 15 µM
IC50 (CYP2D6; human): > 15 µM
IC50 (CYP3A4; human): 9.7 µM

Structure (SMILES): Clc1ccc(COC(Cn2ccnc2)c2ccc(Cl)cc2Cl)c(Cl)c1 (stereo not drawn) [Miconazole, reference compound]
IC50 (CYP2C9; human): 0.32 µM

Structure (SMILES): CC(C)C[C@@H]1NC(=O)[C@H](Cc2ccc(-c3ccccc3)cc2)NC(=O)[C@@H]2CCCN2[C@H](C(=O)NC(C)(C)C)[C@H](C)NC(=O)[C@H]([C@@H](C)O)NC(=O)[C@H](CC(=O)O)NC1=O [ET01813]
IC50 (CYP1A2): > 15 µM
IC50 (CYP2C9): > 15 µM
IC50 (CYP2D6): > 15 µM
IC50 (CYP3A4): > 15 µM
% unbound (Cbuffer/Cplasma) Mouse plasma 1: 24.7%
% unbound (Cbuffer/Cplasma) Mouse plasma 2: 22.2%
% unbound (Cbuffer/Cplasma) Mouse plasma 3: 18.8%
% unbound (Cbuffer/Cplasma) Mouse plasma Average: 21.9%
% unbound (Cbuffer/Cplasma) Rat plasma 1 [1]: 15.8%
% unbound (Cbuffer/Cplasma) Rat plasma 2 [1]: 20.1%
% unbound (Cbuffer/Cplasma) Rat plasma 3 [1]: 21.7%
% unbound (Cbuffer/Cplasma) Rat plasma Average [1]: 19.2%
CLs ([5]; male, CD-1, mouse, iv, 5 mg/kg): 114.8 mL/min/kg
calculated oral bioavailability ([5]; mouse): ~1%
terminal half-life ([5]; mouse): ~2 h
tmax ([5]; mouse, po, 40 mg/kg): 5 min
% recovery [2]: 89%
Control buffer/Buffer at 0.1 uM Cdonor/Creceiver [3]: 94%

Structure (SMILES): CC(C)C[C@@H]1NC(=O)CN(C)C(=O)[C@H](Cc2ccc(O)cc2)NC(=O)[C@@H]2CCCN2[C@H](C(=O)NC(C)(C)C)[C@H](C)NC(=O)[C@H]([C@@H](C)O)NC(=O)[C@H](CC(=O)O)NC1=O [ET2154]
homing of T lymphocytes to the MLN ([4]; 200 mg/kg single oral dose): significant and robust attenuation of homing to the MLN
oral bioavailability / absorption (in words) ([5]; mouse, po): low oral bioavailability

Structure (SMILES): CC(C)NCC(O)COc1cccc2ccccc12 (stereo not drawn) [Propranolol, reference compound]
recovery at 5 h, 1 microM ([2]; Sprague-Dawley, rat, 50% plasma (K2EDTA)): 79%
fraction unbound at 5 h, 1 microM [2, 6]: 0.146
fraction unbound at 5 h, 1 microM [2, 7]: 0.147
fraction unbound at 5 h, 1 microM [2, 8]: 0.147
fraction unbound at 5 h, 1 microM [2, 9]: 0.147
fraction unbound at 5 h, 1 microM ([2]; Sprague-Dawley, rat, free fraction (% unbound), rat plasma): ~0.15
recovery at 5 h, 1 microM ([3]; CD-1, mouse, 50% plasma (K2EDTA)): 93%
fraction unbound at 5 h, 1 microM [3, 10]: 0.229
fraction unbound at 5 h, 1 microM [3, 11]: 0.201
fraction unbound at 5 h, 1 microM [3, 12]: 0.201
fraction unbound at 5 h, 1 microM [3, 13]: 0.21
fraction unbound at 5 h, 1 microM ([3]; CD-1, mouse, free fraction (% unbound), mouse plasma): ~0.21

Continued, values first:

% unbound (Cbuffer/Cplasma) Mouse plasma 3: 9.3%
% unbound (Cbuffer/Cplasma) Mouse plasma Average: 9.5%
% unbound (Cbuffer/Cplasma) Rat plasma 1 [1]: 16.2%
% unbound (Cbuffer/Cplasma) Rat plasma 2 [1]: 17.4%
% unbound (Cbuffer/Cplasma) Rat plasma Average [1]: 15.7%
% recovery [2]: 143%
Control buffer/Buffer at 0.1 uM Cdonor/Creceiver [3]: 86%
% recovery [3]: 103%
Structure (SMILES): CC[C@H](C)[C@@H]1NC(=O)[C@H](CC(=O)O)NC(=O)[C@H](CC(C)C)NC(=O)[C@H](Cc2ccc3ccccc3c2)NC(=O)[C@@H]2CCCN2[C@H](C(=O)NC(C)(C)C)[C@H](C)NC1=O [ET01827]

IC50 (CYP1A2; human): > 15 µM
IC50 (CYP2C9; human): > 15 µM
IC50 (CYP2D6; human): > 15 µM
IC50 (CYP3A4; human): > 15 µM
recovery at 5 hours, 1 microM ([2]; Sprague-Dawley, rat): 94%
fraction unbound at 5 h, 1 microM [2, 6]: 0.833
fraction unbound at 5 h, 1 microM [2, 7]: 0.761
fraction unbound at 5 h, 1 microM [2, 8]: 0.702
fraction unbound at 5 h, 1 microM [2, 9]: 0.765
recovery at 5 hours, 1 microM ([3]; CD-1, mouse): 150%
fraction unbound at 5 h, 1 microM [3, 10]: 0.806
fraction unbound at 5 h, 1 microM [3, 11]: 0.744
fraction unbound at 5 h, 1 microM [3, 12]: 0.757
fraction unbound at 5 h, 1 microM [3, 13]: 0.769
Control buffer/Buffer at 0.1 uM Cdonor/Creceiver [3]: 79%
recovery at 5 hours, 0.1 uM ([3]; buffer/buffer equilibrium dialysis control (HTDialysis)): 99%
Structure (SMILES): CC(C)C[C@@H]1NC(=O)[C@H](Cc2c[nH]c3ccccc23)NC(=O)[C@@H]2CCCN2[C@H](C(=O)NC(C)(C)C)[C@H](C)NC(=O)[C@H]([C@@H](C)O)NC(=O)[C@H](CC(=O)O)NC1=O [ET00762]
